Laboratory results as given in ChEMBL document CHEMBL4387741, “Optimization of novel reversible Bruton's tyrosine kinase inhibitors identified using Tethering-fragment-based screens” (Bioorg Med Chem, 2019).

How the values were obtained:
[1] = molecular target: Discoidin domain-containing receptor 2 (Homo sapiens) (UniProt Q16832); test: Inhibition of wild-type human partial length DDR2 (V555 to E855 residues) expressed in mammalian expression system at 1 uM by Kinomescan method relative to control
[2] = molecular target: Serine/threonine-protein kinase/endoribonuclease IRE1 (Homo sapiens) (UniProt O75460); test: Inhibition of wild-type human partial length ERN1 (S551 to E852 residues) expressed in mammalian expression system at 1 uM by Kinomescan method relative to control
[3] = tested on: Phosphatidylinositol 4,5-bisphosphate 3-kinase catalytic subunit alpha isoform (Homo sapiens), P42336 [E545A]; test: Inhibition of human partial length PIK3CA E545A mutant (R108 to N1068 residues) expressed in mammalian expression system at 1 uM by Kinomescan method relative to control
[4] = molecular target: Testis-specific serine/threonine-protein kinase 1 (Homo sapiens) (UniProt Q9BXA7); test: Inhibition of wild-type human full length TSSK1B (M1 to Q367 residues) expressed in bacterial expression system at 1 uM by Kinomescan method relative to control
[5] = molecular target: NUAK family SNF1-like kinase 1 (Homo sapiens) (UniProt O60285); test: Inhibition of wild-type human partial length ARK5 (E25 to I332 residues) expressed in bacterial expression system at 1 uM by Kinomescan method relative to control
[6] = molecular target: cGMP-dependent protein kinase 1 (Homo sapiens) (UniProt Q13976); test: Inhibition of wild-type human partial length PRKG1 (L339 to F686 residues) expressed in bacterial expression system at 1 uM by Kinomescan method relative to control
[7] = molecular target: Ribosomal protein S6 kinase alpha-2 (Homo sapiens) (UniProt Q15349); test: Inhibition of wild-type human partial length N-terminal RSK3 kinase domain 1 (M1 to Q385 residues) expressed in bacterial expression system at 1 uM by Kinomescan method relative to control
[8] = molecular target: Mitogen-activated protein kinase 8 (Homo sapiens) (UniProt P45983); test: Inhibition of wild-type human full length JNK1 (M1 to Q384 residues) expressed in mammalian expression system at 1 uM by Kinomescan method relative to control
[9] = molecular target: Serine/threonine-protein kinase ULK1 (Homo sapiens) (UniProt O75385); test: Inhibition of wild-type human partial length ULK1 (M1 to T309 residues) expressed in mammalian expression system at 1 uM by Kinomescan method relative to control
[10] = tested on: Epidermal growth factor receptor (Homo sapiens), P00533 [T790M]; test: Inhibition of human partial length EGFR T790M mutant (R669 to G1022 residues) expressed in mammalian expression system at 1 uM by Kinomescan method relative to control
[11] = Protein binding in human plasma assessed as unbound fraction at 2 uM by rapid equilibrium dialysis method; type: ADME, cell-free
[12] = molecular target: Aurora kinase C (Homo sapiens) (UniProt Q9UQB9); test: Inhibition of wild-type human full length AURKC (M1 to S275 residues) expressed in bacterial expression system at 1 uM by Kinomescan method relative to control
[13] = tested on: Epidermal growth factor receptor (Homo sapiens), P00533 [L858R,T790M]; test: Inhibition of human partial length EGFR L858R/T790M double mutant (R669 to V1011 residues) expressed in mammalian expression system at 1 uM by Kinomescan method relative to control
[14] = tested on: Tyrosine-protein kinase ABL1 (Homo sapiens), P00519 [F317L]; test: Inhibition of human non-phosphorylated ABL1 F317L mutant (S229 to K512 residues) expressed in mammalian expression system at 10 uM by Kinomescan method relative to control
[15] = tested on: Mast/stem cell growth factor receptor Kit (Homo sapiens), P10721 [D816V]; test: Inhibition of human partial length KIT D816V mutant (I571 to D952 residues) expressed in bacterial expression system at 10 uM by Kinomescan method relative to control
[16] = molecular target: Tyrosine-protein kinase Blk (Homo sapiens) (UniProt P51451); test: Inhibition of wild-type human partial length BLK (G211 to L503 residues) expressed in bacterial expression system at 10 uM by Kinomescan method relative to control
[17] = molecular target: Serine/threonine-protein kinase Chk2 (Homo sapiens) (UniProt O96017); test: Inhibition of wild-type human partial length CHEK2 (S253 to E574 residues) expressed in bacterial expression system at 10 uM by Kinomescan method relative to control
[18] = molecular target: Mitogen-activated protein kinase 15 (Homo sapiens) (UniProt Q8TD08); test: Inhibition of wild-type human partial length ERK8 (M1 to P437 residues) expressed in bacterial expression system at 10 uM by Kinomescan method relative to control
[19] = molecular target: Tyrosine-protein kinase Fgr (Homo sapiens) (UniProt P09769); test: Inhibition of wild-type human partial length FGR (L233 to T529 residues) expressed in bacterial expression system at 10 uM by Kinomescan method relative to control
[20] = molecular target: Serine/threonine-protein kinase Nek6 (Homo sapiens) (UniProt Q9HC98); test: Inhibition of wild-type human full length NEK6 (M8 to T313 residues) expressed in bacterial expression system at 10 uM by Kinomescan method relative to control
[21] = molecular target: Ephrin type-A receptor 7 (Homo sapiens) (UniProt Q15375); test: Inhibition of wild-type human partial length EPHA7 (Y608 to S912 residues) expressed in bacterial expression system at 10 uM by Kinomescan method relative to control
[22] = molecular target: Homeodomain-interacting protein kinase 1 (Homo sapiens) (UniProt Q86Z02); test: Inhibition of wild-type human partial length HIPK1 (M146 to I555 residues) expressed in mammalian expression system at 10 uM by Kinomescan method relative to control
[23] = molecular target: Mitogen-activated protein kinase kinase kinase kinase 3 (Homo sapiens) (UniProt Q8IVH8); test: Inhibition of wild-type human partial length MAP4K3 (M1 to D301 residues) expressed in bacterial expression system at 10 uM by Kinomescan method relative to control
[24] = molecular target: Tyrosine-protein kinase TXK (Homo sapiens) (UniProt P42681); test: Inhibition of wild-type human partial length TXK (L238 to W527 residues) expressed in bacterial expression system at 10 uM by Kinomescan method relative to control
[25] = molecular target: Serine/threonine-protein kinase haspin (Homo sapiens) (UniProt Q8TF76); test: Inhibition of wild-type human partial length HASPIN (I452 to K798 residues) expressed in mammalian expression system at 10 uM by Kinomescan method relative to control
[26] = molecular target: Activin receptor type-1 (Homo sapiens) (UniProt Q04771); test: Inhibition of wild-type human ACVR1 (C188 to C509 residues) expressed in bacterial expression system at 10 uM by Kinomescan method relative to control
[27] = molecular target: Aurora kinase C (Homo sapiens) (UniProt Q9UQB9); test: Inhibition of wild-type human full length AURKC (M1 to S275 residues) expressed in bacterial expression system at 10 uM by Kinomescan method relative to control

Sequence of Aurora kinase C (Homo sapiens) (Q9UQB9 whole entry, the tested form may be a part): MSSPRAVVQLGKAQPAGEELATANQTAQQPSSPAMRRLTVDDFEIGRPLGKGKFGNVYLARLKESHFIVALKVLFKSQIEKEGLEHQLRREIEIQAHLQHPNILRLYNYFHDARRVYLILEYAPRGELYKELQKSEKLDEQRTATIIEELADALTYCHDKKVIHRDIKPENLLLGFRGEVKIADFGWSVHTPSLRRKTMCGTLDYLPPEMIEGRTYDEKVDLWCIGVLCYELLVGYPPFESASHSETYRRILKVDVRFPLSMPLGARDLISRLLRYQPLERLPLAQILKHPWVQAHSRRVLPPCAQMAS
Sequence of Mast/stem cell growth factor receptor Kit (Homo sapiens), P10721 [D816V] (P10721 whole entry D816V, the tested form may be a part): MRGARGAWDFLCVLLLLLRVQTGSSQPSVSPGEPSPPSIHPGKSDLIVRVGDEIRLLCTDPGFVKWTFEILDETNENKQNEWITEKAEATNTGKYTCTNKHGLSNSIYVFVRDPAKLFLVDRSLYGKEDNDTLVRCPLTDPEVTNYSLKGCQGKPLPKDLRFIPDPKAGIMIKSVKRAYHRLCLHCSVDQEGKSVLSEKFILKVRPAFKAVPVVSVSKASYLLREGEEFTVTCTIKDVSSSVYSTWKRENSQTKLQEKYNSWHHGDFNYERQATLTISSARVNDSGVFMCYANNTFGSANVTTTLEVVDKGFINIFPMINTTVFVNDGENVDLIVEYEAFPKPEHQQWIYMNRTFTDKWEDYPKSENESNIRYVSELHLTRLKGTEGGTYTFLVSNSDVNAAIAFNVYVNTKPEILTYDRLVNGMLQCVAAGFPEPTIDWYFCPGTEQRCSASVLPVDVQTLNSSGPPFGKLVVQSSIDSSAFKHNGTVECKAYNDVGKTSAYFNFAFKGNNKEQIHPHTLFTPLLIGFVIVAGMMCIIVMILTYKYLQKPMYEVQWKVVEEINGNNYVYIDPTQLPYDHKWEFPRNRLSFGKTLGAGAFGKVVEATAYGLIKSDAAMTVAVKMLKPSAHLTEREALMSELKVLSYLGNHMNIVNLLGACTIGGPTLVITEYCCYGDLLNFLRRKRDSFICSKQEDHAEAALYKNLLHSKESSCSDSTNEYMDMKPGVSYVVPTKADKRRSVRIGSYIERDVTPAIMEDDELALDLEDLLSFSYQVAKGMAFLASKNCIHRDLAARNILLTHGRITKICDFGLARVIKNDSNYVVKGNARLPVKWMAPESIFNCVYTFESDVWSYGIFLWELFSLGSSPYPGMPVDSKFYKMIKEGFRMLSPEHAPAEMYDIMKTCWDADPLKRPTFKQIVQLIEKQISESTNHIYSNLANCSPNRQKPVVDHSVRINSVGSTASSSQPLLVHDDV
Sequence of Epidermal growth factor receptor (Homo sapiens), P00533 [L858R,T790M] (P00533 whole entry T790M/L858R, looked up, the tested form may be a part): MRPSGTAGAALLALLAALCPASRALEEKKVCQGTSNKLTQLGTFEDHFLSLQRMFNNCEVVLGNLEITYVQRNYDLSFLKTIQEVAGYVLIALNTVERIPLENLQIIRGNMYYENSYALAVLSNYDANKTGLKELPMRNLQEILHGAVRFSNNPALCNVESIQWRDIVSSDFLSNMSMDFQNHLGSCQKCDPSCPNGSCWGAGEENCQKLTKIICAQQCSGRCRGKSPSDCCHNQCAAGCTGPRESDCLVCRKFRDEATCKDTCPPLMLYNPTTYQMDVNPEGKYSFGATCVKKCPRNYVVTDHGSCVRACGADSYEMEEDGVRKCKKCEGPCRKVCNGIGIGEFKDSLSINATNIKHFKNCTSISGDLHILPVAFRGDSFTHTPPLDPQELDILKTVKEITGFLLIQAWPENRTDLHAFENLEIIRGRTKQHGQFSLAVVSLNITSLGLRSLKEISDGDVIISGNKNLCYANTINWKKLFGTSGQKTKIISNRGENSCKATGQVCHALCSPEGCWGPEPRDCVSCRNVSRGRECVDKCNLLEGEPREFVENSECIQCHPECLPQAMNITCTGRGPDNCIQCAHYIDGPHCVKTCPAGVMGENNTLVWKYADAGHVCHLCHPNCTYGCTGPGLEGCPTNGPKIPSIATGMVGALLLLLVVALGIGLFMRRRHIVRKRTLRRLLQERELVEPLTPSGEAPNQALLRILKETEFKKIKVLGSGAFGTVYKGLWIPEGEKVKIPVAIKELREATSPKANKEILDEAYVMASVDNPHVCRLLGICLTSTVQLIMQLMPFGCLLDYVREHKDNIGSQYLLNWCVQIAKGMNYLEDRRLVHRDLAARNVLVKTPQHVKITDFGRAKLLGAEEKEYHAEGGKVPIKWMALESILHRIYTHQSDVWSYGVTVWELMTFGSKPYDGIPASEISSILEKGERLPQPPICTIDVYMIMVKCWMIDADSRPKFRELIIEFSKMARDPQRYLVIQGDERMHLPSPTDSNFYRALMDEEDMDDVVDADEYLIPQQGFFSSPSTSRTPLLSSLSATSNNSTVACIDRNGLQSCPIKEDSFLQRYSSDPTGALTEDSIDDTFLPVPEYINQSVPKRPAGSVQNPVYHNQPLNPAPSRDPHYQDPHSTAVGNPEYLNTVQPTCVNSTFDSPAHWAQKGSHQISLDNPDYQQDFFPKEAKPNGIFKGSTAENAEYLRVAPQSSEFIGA
Sequence of Serine/threonine-protein kinase haspin (Homo sapiens) (Q8TF76 whole entry, the tested form may be a part): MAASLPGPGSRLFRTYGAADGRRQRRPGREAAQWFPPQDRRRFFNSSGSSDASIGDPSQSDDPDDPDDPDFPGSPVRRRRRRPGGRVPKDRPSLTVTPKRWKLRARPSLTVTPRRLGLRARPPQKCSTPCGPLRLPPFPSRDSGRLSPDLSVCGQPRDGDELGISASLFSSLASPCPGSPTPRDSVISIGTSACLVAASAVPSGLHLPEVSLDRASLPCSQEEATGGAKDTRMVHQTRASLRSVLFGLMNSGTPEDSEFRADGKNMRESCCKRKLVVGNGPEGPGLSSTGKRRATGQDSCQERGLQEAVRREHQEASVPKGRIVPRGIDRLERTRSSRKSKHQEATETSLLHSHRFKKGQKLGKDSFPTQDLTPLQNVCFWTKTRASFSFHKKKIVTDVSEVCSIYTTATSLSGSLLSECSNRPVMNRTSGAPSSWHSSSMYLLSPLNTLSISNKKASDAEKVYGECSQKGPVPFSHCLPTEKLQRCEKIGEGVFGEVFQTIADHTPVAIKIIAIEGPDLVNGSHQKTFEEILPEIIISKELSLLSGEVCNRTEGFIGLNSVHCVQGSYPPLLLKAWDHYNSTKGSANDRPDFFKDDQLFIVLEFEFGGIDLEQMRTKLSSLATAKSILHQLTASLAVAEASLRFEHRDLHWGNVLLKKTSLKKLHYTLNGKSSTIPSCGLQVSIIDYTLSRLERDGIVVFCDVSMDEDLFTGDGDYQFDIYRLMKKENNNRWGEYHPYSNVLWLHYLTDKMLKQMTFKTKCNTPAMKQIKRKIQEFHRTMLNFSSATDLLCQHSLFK
Sequence of Epidermal growth factor receptor (Homo sapiens), P00533 [T790M] (P00533 whole entry T790M, the tested form may be a part): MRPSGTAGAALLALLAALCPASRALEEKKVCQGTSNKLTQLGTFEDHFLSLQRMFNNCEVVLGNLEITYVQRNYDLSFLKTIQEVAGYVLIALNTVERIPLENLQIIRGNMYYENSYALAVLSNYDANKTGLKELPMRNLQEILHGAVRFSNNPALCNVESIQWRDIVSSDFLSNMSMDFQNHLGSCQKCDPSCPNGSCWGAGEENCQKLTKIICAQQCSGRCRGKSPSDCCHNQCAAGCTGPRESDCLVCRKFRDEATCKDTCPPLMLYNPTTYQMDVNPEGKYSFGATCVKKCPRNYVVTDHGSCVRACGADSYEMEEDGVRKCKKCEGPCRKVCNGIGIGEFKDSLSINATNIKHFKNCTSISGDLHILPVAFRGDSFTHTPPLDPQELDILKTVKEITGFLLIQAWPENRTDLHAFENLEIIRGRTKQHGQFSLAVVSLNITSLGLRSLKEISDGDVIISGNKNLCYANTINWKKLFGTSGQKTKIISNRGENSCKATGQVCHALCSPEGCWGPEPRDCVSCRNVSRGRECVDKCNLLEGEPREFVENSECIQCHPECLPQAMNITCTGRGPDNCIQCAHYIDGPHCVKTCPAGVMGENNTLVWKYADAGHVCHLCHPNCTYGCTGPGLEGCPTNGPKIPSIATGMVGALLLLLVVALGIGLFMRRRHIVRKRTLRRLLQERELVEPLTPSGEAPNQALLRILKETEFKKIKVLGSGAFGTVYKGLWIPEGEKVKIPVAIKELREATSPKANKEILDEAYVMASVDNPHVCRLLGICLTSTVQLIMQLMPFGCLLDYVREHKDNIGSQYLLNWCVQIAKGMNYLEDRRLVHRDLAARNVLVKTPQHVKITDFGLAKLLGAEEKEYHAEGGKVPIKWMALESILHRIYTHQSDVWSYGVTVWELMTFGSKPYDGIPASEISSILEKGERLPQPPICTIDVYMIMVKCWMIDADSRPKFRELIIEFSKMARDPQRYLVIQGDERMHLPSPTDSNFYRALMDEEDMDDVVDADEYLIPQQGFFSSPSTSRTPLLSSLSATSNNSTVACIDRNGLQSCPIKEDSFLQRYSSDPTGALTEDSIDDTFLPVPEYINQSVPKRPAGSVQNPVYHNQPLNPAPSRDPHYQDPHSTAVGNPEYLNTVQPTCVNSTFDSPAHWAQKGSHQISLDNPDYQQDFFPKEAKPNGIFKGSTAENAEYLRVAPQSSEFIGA
Sequence of Tyrosine-protein kinase Blk (Homo sapiens) (P51451 2-505 limits assumed): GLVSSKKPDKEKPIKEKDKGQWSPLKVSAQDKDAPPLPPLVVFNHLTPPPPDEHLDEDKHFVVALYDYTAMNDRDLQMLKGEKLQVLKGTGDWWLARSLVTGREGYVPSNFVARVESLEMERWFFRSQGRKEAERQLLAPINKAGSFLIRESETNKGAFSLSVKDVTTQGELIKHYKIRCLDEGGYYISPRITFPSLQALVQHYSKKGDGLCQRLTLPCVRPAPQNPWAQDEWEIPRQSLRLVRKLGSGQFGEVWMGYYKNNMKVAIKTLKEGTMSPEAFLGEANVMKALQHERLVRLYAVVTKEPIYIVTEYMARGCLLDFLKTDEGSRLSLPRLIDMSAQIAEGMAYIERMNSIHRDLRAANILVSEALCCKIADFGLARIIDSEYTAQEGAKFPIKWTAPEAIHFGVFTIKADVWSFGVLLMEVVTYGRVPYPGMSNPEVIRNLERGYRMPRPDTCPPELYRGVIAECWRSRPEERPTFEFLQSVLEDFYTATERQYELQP

## O=C(Nc1cccc([C@@H]2CN(c3ncnc4[nH]ccc34)CCN2CCO)c1)Nc1c(F)cccc1N1CCCC1
[1]
  inhibition: 73%
[2]
  inhibition: 56%
[3]
  inhibition: 65%
[4]
  inhibition: 100%
[5]
  inhibition: 45%
[6]
  inhibition: 100%
[7]
  inhibition: 88%
[8]
  inhibition: 70%
[9]
  inhibition: 60%
[10]
  inhibition: 96%
[11]
  Fu: 1%
[12]
  inhibition: 33%
[13]
  inhibition: 97%

## O=C(Nc1cccc([C@H]2CCCN(c3ncnc4[nH]ccc34)C2)c1)Nc1ccccc1N1CCCC1
[14]
  inhibition: 89%
[15]
  inhibition: 0.9%
[16]
  inhibition: 43%
[17]
  inhibition: 47%
[18]
  inhibition: 99%
[19]
  inhibition: 62%
[20]
  inhibition: 69%
[21]
  inhibition: 72%
[22]
  inhibition: 61%
[23]
  inhibition: 47%
[24]
  inhibition: 94%
[25]
  inhibition: 63%
[26]
  inhibition: 100%
[27]
  inhibition: 4.3%
